Assay results as given in ChEMBL document CHEMBL3044672, “N9- and N7-(Chloromethyl Phenymethyl)Chloropurine Derivatives from , '-Dichloroxylenes: Synthesis and Anticancer Activity” (2005).

Assays:
Assay type in all cases: functional
HT-29 = experiment: Cytotoxicity against Homo sapiens (human) HT-29 cells after 48 hr by sulforhodamine B assay; settings: HT-29, 48 h
NCI-H322M = experiment: Cytotoxicity against Homo sapiens (human) NCI-H322M cells after 48 hr by sulforhodamine B assay
LOX IMVI = experiment: Cytotoxicity against Homo sapiens (human) LOXIMVI cells after 48 hr by sulforhodamine B assay
CCRF-CEM = experiment: Cytotoxicity against Homo sapiens (human) CCRF-CEM cells after 48 hr by sulforhodamine B assay
NCI-H23 = experiment: Cytotoxicity against Homo sapiens (human) NCI-H23 cells after 48 hr by sulforhodamine B assay; settings: NCI-H23, 48 h
M14 = experiment: Cytotoxicity against Homo sapiens (human) M14 cells after 48 hr by sulforhodamine B assay; settings: M14, 48 h
T47D = experiment: Cytotoxicity against Homo sapiens (human) T47D cells after 48 hr by sulforhodamine B assay
SF-295 = experiment: Cytotoxicity against Homo sapiens (human) SF295 cells after 48 hr by sulforhodamine B assay; settings: SF-295, 48 h
NCI-H460 = experiment: Cytotoxicity against Homo sapiens (human) NCI-H460 cells after 48 hr by sulforhodamine B assay; settings: NCI-H460, 48 h
SK-MEL-2 = experiment: Cytotoxicity against Homo sapiens (human) SK-MEL-2 cells after 48 hr by sulforhodamine B assay; settings: SK-MEL-2, 48 h
BT-549 = experiment: Cytotoxicity against Homo sapiens (human) BT549 cells after 48 hr by sulforhodamine B assay; settings: BT-549, 48 h
OVCAR-3 = experiment: Cytotoxicity against Homo sapiens (human) OVCAR3 cells after 48 hr by sulforhodamine B assay; settings: OVCAR-3, 48 h
MOLT-4 = experiment: Cytotoxicity against Homo sapiens (human) MOLT4 cells after 48 hr by sulforhodamine B assay; settings: MOLT-4, 48 h
SK-MEL-28 = experiment: Cytotoxicity against Homo sapiens (human) SK-MEL-28 cells after 48 hr by sulforhodamine B assay; settings: SK-MEL-28, 48 h
HCC 2998 = experiment: Cytotoxicity against Homo sapiens (human) HCC2998 cells after 48 hr by sulforhodamine B assay; settings: HCC 2998, 48 h
CAKI-1 = experiment: Cytotoxicity against Homo sapiens (human) Caki1 cells after 48 hr by sulforhodamine B assay; settings: CAKI-1, 48 h
SK-MEL-5 = experiment: Cytotoxicity against Homo sapiens (human) SK-MEL-5 cells after 48 hr by sulforhodamine B assay; settings: SK-MEL-5, 48 h
SF-268 = experiment: Cytotoxicity against Homo sapiens (human) SF268 cells after 48 hr by sulforhodamine B assay; settings: SF-268, 48 h
PC-3 = experiment: Cytotoxicity against Homo sapiens (human) PC3 cells after 48 hr by sulforhodamine B assay; settings: PC-3, 48 h
OVCAR-8 = experiment: Cytotoxicity against Homo sapiens (human) OVCAR8 cells after 48 hr by sulforhodamine B assay; settings: OVCAR-8, 48 h
IGROV-1 = experiment: Cytotoxicity against Homo sapiens (human) IGROV1 cells after 48 hr by sulforhodamine B assay; settings: IGROV-1, 48 h
DU-145 = experiment: Cytotoxicity against Homo sapiens (human) DU145 cells after 48 hr by sulforhodamine B assay; settings: DU-145, 48 h
EKVX = experiment: Cytotoxicity against Homo sapiens (human) EKVX cells after 48 hr by sulforhodamine B assay
OVCAR-5 = experiment: Cytotoxicity against Homo sapiens (human) OVCAR5 cells after 48 hr by sulforhodamine B assay; settings: OVCAR-5, 48 h
MCF7 [1] = experiment: Cytotoxicity against Homo sapiens (human) MCF7 cells after 48 hr by sulforhodamine B assay; settings: MCF7, 48 h
[2] = Cytotoxicity against Homo sapiens (human) NCI-ADR-RES cells after 48 hr by sulforhodamine B assay
MCF7 [3] = experiment: Cytotoxicity against Homo sapiens (human) MCF7 cells assessed as cell growth at 10^-4 M after 48 hr by Alamar blue assay; settings: MCF7, 48 h, read-out: Activity
SK-OV-3 = experiment: Cytotoxicity against Homo sapiens (human) SKOV3 cells after 48 hr by sulforhodamine B assay; settings: SK-OV-3, 48 h
HOP-62 = experiment: Cytotoxicity against Homo sapiens (human) HOP62 cells after 48 hr by sulforhodamine B assay; settings: HOP-62, 48 h
UO-31 = experiment: Cytotoxicity against Homo sapiens (human) UO31 cells after 48 hr by sulforhodamine B assay; settings: UO-31, 48 h
U-251 = experiment: Cytotoxicity against Homo sapiens (human) U251 cells after 48 hr by sulforhodamine B assay; settings: U-251, 48 h
[4] = read-out: LC50 (the source's name)

SMILES: Nc1nc(Cl)c2ncn(Cc3ccccc3CCl)c2n1
- TGI (HT-29): 19.1 µM
- CC50 (HT-29; [4]): > 100 µM
- TGI (NCI-H322M): 29.5 µM
- CC50 (NCI-H322M; [4]): 69.2 µM
- LC50 (LOX IMVI): > 100 µM
- TGI (LOX IMVI): 21.9 µM
- TGI (CCRF-CEM): > 100 µM
- CC50 (CCRF-CEM; [4]): > 100 µM
- TGI (NCI-H23): 8.91 µM
- CC50 (NCI-H23; [4]): 78.9 µM
- LC50 (M14): > 100 µM
- TGI (M14): 39.8 µM
- LC50 (T47D): > 100 µM
- TGI (T47D): 83.2 µM
- TGI (SF-295): 23.4 µM
- CC50 (SF-295; [4]): 63.1 µM
- TGI (NCI-H460): 37.1 µM
- CC50 (NCI-H460; [4]): > 100 µM
- LC50 (concentration killing 50% of cells) (SK-MEL-2): > 100 µM
- TGI (SK-MEL-2): 81.3 µM
- LC50 (50% lethal concentration) (BT-549): 57.5 µM
- TGI (BT-549): 22.9 µM
- LC50 (OVCAR-3): 46.8 µM
- TGI (OVCAR-3): 20 µM
- TGI (MOLT-4): > 100 µM
- CC50 (MOLT-4; [4]): > 100 µM
- LC50 (concentration killing 50% of cells) (SK-MEL-28): 74.1 µM
- TGI (SK-MEL-28): 20.9 µM
- TGI (HCC 2998): 6.61 µM
- CC50 (HCC 2998; [4]): 26.3 µM
- TGI (CAKI-1): 20.4 µM
- CC50 (CAKI-1; [4]): 50.1 µM
- LC50 (SK-MEL-5): 75.9 µM
- TGI (SK-MEL-5): 26.3 µM
- TGI (SF-268): 14.5 µM
- CC50 (SF-268; [4]): 97.2 µM
- LC50 (concentration causing 50% cell kill) (PC-3): > 100 µM
- TGI (PC-3): 67.6 µM
- LC50 (concentration killing 50% of cells) (OVCAR-8): > 100 µM
- TGI (OVCAR-8): 19.5 µM
- LC50 (IGROV-1): > 100 µM
- TGI (IGROV-1): > 100 µM
- LC50 (DU-145): 70.8 µM
- TGI (DU-145): 32.4 µM
- TGI (EKVX): 30.9 µM
- CC50 (EKVX; [4]): 60.3 µM
- TGI (OVCAR-5): 39.8 µM
- CC50 (OVCAR-5; [4]): 79.4 µM
- LC50 (concentration killing 50% of cells) (MCF7 [1]): 87.1 µM
- TGI (MCF7 [1]): 24.6 µM
- LC50 (concentration killing 50% of cells) [2]: > 100 µM
- TGI [2]: 34.7 µM
- growth at 100 µM (MCF7 [3]): 0%
- LC50 (SK-OV-3): > 100 µM
- TGI (SK-OV-3): 52.5 µM
- TGI (HOP-62): 61.7 µM
- CC50 (HOP-62; [4]): > 100 µM
- LC50 (concentration causing 50% net cell kill) (UO-31): > 100 µM
- TGI (UO-31): 44.7 µM
- LC50 (concentration killing 50% of cells) (U-251): 72.4 µM
- TGI (U-251): 13.5 µM
